# According to patent publication US20250381198A1 (Melt Pharmaceuticals, Inc., priority 2024, published 2025):
# Experiments:
# Assay type in all cases: in vivo, human
# [1] = system: subjects undergoing cataract extraction with lens replacement (CELR); assay: Phase 3 MELT-300: procedural sedation responders (primary endpoint); settings: for Procedural sedation responder - n: number of subjects
# Procedure: Eligible participants were admitted to the study unit on Day 1.
# Participants received study medication 30 (+5) minutes, without food or water, before planned surgery start (defined as instillation of topical ocular anesthetic gel (3 drops of chloroprocaine hydrochloride ophthalmic gel)).
# The effectiveness of MELT-300 was evaluated after study medication is administered before surgery, in the course of surgery (intraoperatively), and postoperative on Day 1 (end of surgery defined as just prior to drape removal). Efficacy assessments included assessments of sedation, need for rescue medication for sedation, need for rescue medication for pain, and the ability to complete the surgery.
# Achievement of the primary endpoint (i.e., procedural sedation) was evaluated. Success for a procedural sedation responder was defined as a subject that achieved the target sedation level (RSS level 2 or 3) by the start of surgery without the need for rescue sedation medication, no requirement for intraoperative sedation medication, and who was able to complete the surgery.
# Treatment differences were tested using a Pearson's chi-square test where a p-value<0.05 indicated a difference, with a Fisher's exact test being used instead if any expected values were <5. […] A supportive stratified analysis was performed using the Cochran-Mantel-Haenszel (CMH) row-mean score test to stratify by site grouping.
# This sensitivity analysis utilized the last observation (collected after study drug administration) carried forward method for imputing missing preoperative RSS scores just prior to the start of surgery.
# [2] = system: subjects undergoing cataract extraction with lens replacement (CELR); assay: Phase 3: intraoperative supplemental analgesia; settings: intention-to-treat analysis set
# [3] = system: subjects undergoing cataract extraction with lens replacement (CELR); assay: Phase 3: rescue sedation medication use preoperatively and intraoperatively
# From the text: A secondary analysis of rescue sedation medication use (both preoperatively and intraoperatively) for the ITT analysis set is shown in TABLE 51.
# [4] = system: subjects undergoing cataract extraction with lens replacement (CELR); assay: Phase 3: Ramsay sedation scale (RSS) scores; settings: ITT analysis set
# From the text: The RSS scores are summarized for: the baseline, just prior to the start of surgery, the minimum and maximum preoperative score, the minimum and maximum intraoperative score, the minimum and maximum postoperative score, and the maximum overall score.
# [5] = system: subjects undergoing cataract extraction with lens replacement (CELR); assay: Phase 3: requirement for rescue sedation medication (first key secondary); settings: for Requirement for rescue sedation medication - n: number of subjects
# Procedure: Analysis of the first key secondary analysis of requirement for rescue sedation medication was performed. Requirement for rescue sedation medication was defined as a subject that received rescue sedation medication during the preoperative or intraoperative period. Group comparisons and statistics were analogous to those for TABLES 42-44.
# [6] = ITT Analysis Set, number of subjects
# [7] = Just prior to the start of surgery
smiles,measurement,setting,value
"Cc1ncc2n1-c1ccc(Cl)cc1C(c1ccccc1F)=NC2 [Midazolam, 8-chloro-6-(2-fluorophenyl)-1-methyl-4H-imidazo[1,5-a][1,4]benzodiazepine]",Procedural sedation responder - %,[1]; All-Treated Analysis Set,65.2%
same,Procedural sedation responder - n,[1]; All-Treated Analysis Set,58
same,Procedural sedation responder - %,[1]; ITT Analysis Set,65.2%
same,Procedural sedation responder - n,[1]; ITT Analysis Set,58
same,Procedural sedation responders (achieved target sedation),"[1]; ITT analysis set, MELT-300 or 3 mg midazolam sublingual tablet before CELR",65.2%
same,Procedural sedation responder - %,[1]; PP Analysis Set,65.2%
same,Procedural sedation responder - n,[1]; PP Analysis Set,58
same,Subjects who received intraoperative supplemental analgesia,[2],1.1%
same,Received intraoperative rescue sedation medication - %,[3]; ITT Analysis Set,16.9%
same,Received preoperative rescue sedation medication - %,[3]; ITT Analysis Set,18.0%
same,Received intraoperative rescue sedation medication - n,[3]; [6],15
same,Received preoperative rescue sedation medication - n,[3]; [6],16
same,Subjects who received intraoperative rescue sedation medication,[3]; ITT analysis set,16.9%
same,Subjects who received preoperative rescue sedation medication,[3]; ITT analysis set,18.0%
same,"Ramsay sedation scale score 1, number of subjects",[4]; Baseline,89
same,"Ramsay sedation scale score 1, percent of subjects (in parentheses)",[4]; Baseline,(100.0)
same,"Ramsay sedation scale score 2-3, number of subjects",[4]; Baseline,0
same,"Ramsay sedation scale score 4, number of subjects",[4]; Baseline,0
same,"Ramsay sedation scale score 5+, number of subjects",[4]; Baseline,0
same,"Ramsay sedation scale: Prior rescue sedation medication given, number of subjects",[4]; Baseline,0
same,"Ramsay sedation scale score 1, number of subjects",[4]; [7],7
same,"Ramsay sedation scale score 1, percent of subjects (in parentheses)",[4]; [7],(7.9)
same,"Ramsay sedation scale score 2-3, number of subjects",[4]; [7],65
same,"Ramsay sedation scale score 2-3, percent of subjects (in parentheses)",[4]; [7],(73.0)
same,"Ramsay sedation scale score 4, number of subjects",[4]; [7],0
same,"Ramsay sedation scale score 5+, number of subjects",[4]; [7],0
same,"Ramsay sedation scale: Prior rescue sedation medication given, number of subjects",[4]; [7],17
same,"Ramsay sedation scale: Prior rescue sedation medication given, percent of subjects (in parentheses)",[4]; [7],(19.1)
same,"Ramsay sedation scale score 1, number of subjects",[4]; Maximum intraoperative score,4
same,"Ramsay sedation scale score 1, percent of subjects (in parentheses)",[4]; Maximum intraoperative score,(4.5)
same,"Ramsay sedation scale score 2-3, number of subjects",[4]; Maximum intraoperative score,60
same,"Ramsay sedation scale score 2-3, percent of subjects (in parentheses)",[4]; Maximum intraoperative score,(67.4)
same,"Ramsay sedation scale score 4, number of subjects",[4]; Maximum intraoperative score,0
same,"Ramsay sedation scale score 5+, number of subjects",[4]; Maximum intraoperative score,0
same,"Ramsay sedation scale: Prior rescue sedation medication given, number of subjects",[4]; Maximum intraoperative score,25
same,"Ramsay sedation scale: Prior rescue sedation medication given, percent of subjects (in parentheses)",[4]; Maximum intraoperative score,(28.1)
same,"Ramsay sedation scale score 1, number of subjects",[4]; Maximum postoperative score,45
same,"Ramsay sedation scale score 1, percent of subjects (in parentheses)",[4]; Maximum postoperative score,(50.6)
same,"Ramsay sedation scale score 2-3, number of subjects",[4]; Maximum postoperative score,14
same,"Ramsay sedation scale score 2-3, percent of subjects (in parentheses)",[4]; Maximum postoperative score,(15.7)
same,"Ramsay sedation scale score 4, number of subjects",[4]; Maximum postoperative score,0
same,"Ramsay sedation scale score 5+, number of subjects",[4]; Maximum postoperative score,0
same,"Ramsay sedation scale: Prior rescue sedation medication given, number of subjects",[4]; Maximum postoperative score,29
same,"Ramsay sedation scale: Prior rescue sedation medication given, percent of subjects (in parentheses)",[4]; Maximum postoperative score,(32.6)
same,"Ramsay sedation scale score 1, number of subjects",[4]; Maximum preoperative score,22
same,"Ramsay sedation scale score 1, percent of subjects (in parentheses)",[4]; Maximum preoperative score,(24.7)
same,"Ramsay sedation scale score 2-3, number of subjects",[4]; Maximum preoperative score,67
same,"Ramsay sedation scale score 2-3, percent of subjects (in parentheses)",[4]; Maximum preoperative score,(75.3)
same,"Ramsay sedation scale score 4, number of subjects",[4]; Maximum preoperative score,0
same,"Ramsay sedation scale score 5+, number of subjects",[4]; Maximum preoperative score,0
same,"Ramsay sedation scale: Prior rescue sedation medication given, number of subjects",[4]; Maximum preoperative score,0
same,"Ramsay sedation scale score 1, number of subjects",[4]; Maximum score overall,22
same,"Ramsay sedation scale score 1, percent of subjects (in parentheses)",[4]; Maximum score overall,(24.7)
same,"Ramsay sedation scale score 2-3, number of subjects",[4]; Maximum score overall,67
same,"Ramsay sedation scale score 2-3, percent of subjects (in parentheses)",[4]; Maximum score overall,(75.3)
same,"Ramsay sedation scale score 4, number of subjects",[4]; Maximum score overall,0
same,"Ramsay sedation scale score 5+, number of subjects",[4]; Maximum score overall,0
same,"Ramsay sedation scale: Prior rescue sedation medication given, number of subjects",[4]; Maximum score overall,0
same,"Ramsay sedation scale score 1, number of subjects",[4]; Minimum intraoperative score,4
same,"Ramsay sedation scale score 1, percent of subjects (in parentheses)",[4]; Minimum intraoperative score,(4.5)
same,"Ramsay sedation scale score 2-3, number of subjects",[4]; Minimum intraoperative score,60
same,"Ramsay sedation scale score 2-3, percent of subjects (in parentheses)",[4]; Minimum intraoperative score,(67.4)
same,"Ramsay sedation scale score 4, number of subjects",[4]; Minimum intraoperative score,0
same,"Ramsay sedation scale score 5+, number of subjects",[4]; Minimum intraoperative score,0
same,"Ramsay sedation scale: Prior rescue sedation medication given, number of subjects",[4]; Minimum intraoperative score,25
same,"Ramsay sedation scale: Prior rescue sedation medication given, percent of subjects (in parentheses)",[4]; Minimum intraoperative score,(28.1)
same,"Ramsay sedation scale score 1, number of subjects",[4]; Minimum postoperative score,49
same,"Ramsay sedation scale score 1, percent of subjects (in parentheses)",[4]; Minimum postoperative score,(55.1)
same,"Ramsay sedation scale score 2-3, number of subjects",[4]; Minimum postoperative score,10
same,"Ramsay sedation scale score 2-3, percent of subjects (in parentheses)",[4]; Minimum postoperative score,(11.2)
same,"Ramsay sedation scale score 4, number of subjects",[4]; Minimum postoperative score,0
same,"Ramsay sedation scale score 5+, number of subjects",[4]; Minimum postoperative score,0
same,"Ramsay sedation scale: Prior rescue sedation medication given, number of subjects",[4]; Minimum postoperative score,29
same,"Ramsay sedation scale: Prior rescue sedation medication given, percent of subjects (in parentheses)",[4]; Minimum postoperative score,(32.6)
same,Requirement for rescue sedation medication - %,[5]; All-Treated Analysis Set,33.7%
same,Requirement for rescue sedation medication - n,[5]; All-Treated Analysis Set,30
same,Requirement for rescue sedation medication - %,[5]; ITT Analysis Set,33.7%
same,Requirement for rescue sedation medication - n,[5]; ITT Analysis Set,30
same,Subjects who required rescue sedation medication,"[5]; ITT analysis set, preoperative or intraoperative period",33.7%
same,Requirement for rescue sedation medication - %,[5]; PP Analysis Set,33.7%
same,Requirement for rescue sedation medication - n,[5]; PP Analysis Set,30
same,Subjects who required rescue sedation medication,[5]; PP analysis set,33.7%
same,Subjects who required rescue sedation medication,[5]; all-treated analysis set,33.7%
